{"source": "patent US11643438B2", "about": "“Antimicrobial peptides and methods of use” (priority 2018, dated 2023)", "note": "Entries after “also recorded” stand apart in the source; their conditions may differ. *1 amine or outer side, *2 acyl side, *3 side chain or, on linkers, in order; H or OH if unused. Where a SMILES comes first, the peptide text is derived from it. [ ]: non-standard residue; d: D form. X2 = CC[C@H](C)C[C@H](C)C[C@H](C)C[C@H](N[*:1])C(=O)[*:2]; X1 = CC[C@@H](C)[C@@H](O[*:1])C(=O)[*:2]; NMeVal(β-OH) = CN[C@H](C(=O)O)C(C)(C)O; aIle = CC[C@@H](C)[C@H](N)C(=O)O; NMeV = CN[C@H](C(=O)O)C(C)C; Sar = CNCC(=O)O", "data": [{"tested_on": "C. albicans SC5314 Flu^R", "test": "Ex vivo model of fungal keratitis (porcine cornea)", "design": "species or system Candida albicans", "values": [{"smiles": "CC[C@H](C)C[C@H](C)C[C@H](C)C[C@@H]1NC(=O)[C@H](C(C)C)N(C)C(=O)[C@@H]([C@H](C)CC)OC(=O)[C@H](C(C)(C)O)N(C)C(=O)[C@H](CC(C)C)NC(=O)[C@H](C(C)C)N(C)C(=O)[C@H]([C@H](C)CC)NC(=O)[C@@H]2CCCN2C(=O)CN(C)C1=O", "note": "[Compound 1, persephacin] (cyclo(L[NMeVal(β-OH)][X1][NMeV][X2][Sar]P[aIle][NMeV]))", "antifungal activity (fungal growth/infection), in words": "inhibited the growth; also recorded: eliminated the fungus"}, {"smiles": "OC(Cn1cncn1)(Cn1cncn1)c1ccc(F)cc1F", "note": "[Fluconazole, fluconazole]", "antifungal activity (fungal growth/infection), in words": "did not inhibit the growth; also recorded: unable to inhibit the fungus"}, {"smiles": "C[C@@H]1C/C=C/C=C/C=C/C=C/[C@H](O[C@@H]2O[C@H](C)[C@@H](O)[C@H](N)[C@@H]2O)C[C@@H]2O[C@](O)(C[C@@H](O)C[C@H]3O[C@@H]3/C=C/C(=O)O1)C[C@H](O)[C@H]2C(=O)O", "note": "[Natamycin, natamycin]", "antifungal activity (fungal growth/infection), in words": "inhibited the growth; also recorded: reduced the fungal burden"}]}]}
